Test results as given in ChEMBL document CHEMBL1201861, “Genomics of Drug Sensitity in Cancer screening data, Wellcome Trust Sanger Institute”.

Legend:
Type in all cases: functional, cell-based
MONO-MAC-6 = assay: cells; conditions: Homo sapiens;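 further: cell viability assay measuring growth inhibition of human MONO-MAC-6 cells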
Description: SANGER: Inhibition of human MONO-MAC-6 cell growth in a cell viability assay.

NCI-H522 = assay: cells; conditions: Homo sapiens;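 further: cell viability assay measuring growth inhibition of human NCI-H522 cells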
Description: SANGER: Inhibition of human NCI-H522 cell growth in a cell viability assay.

Ca9-22 = assay: cells; conditions: Homo sapiens;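 further: growth inhibition of Ca9-22 cells, read out with a cell viability assay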
Description: SANGER: Inhibition of human Ca9-22 cell growth in a cell viability assay.

BEN = assay: cells; conditions: Homo sapiens;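 further: growth inhibition of the BEN cell line, read out with a cell viability assay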
Description: SANGER: Inhibition of human BEN cell growth in a cell viability assay.

LU-165 = assay: cells; conditions: Homo sapiens
Description: SANGER: Inhibition of human LU-165 cell growth in a cell viability assay.

OE33 = assay: cells; conditions: Homo sapiens;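 further: growth inhibition of human OE33 cells, measured by a cell viability assay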
Description: SANGER: Inhibition of human OE33 cell growth in a cell viability assay.

SK-LU-1 = assay: cells; conditions: Homo sapiens;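 further: cell viability assay measuring growth inhibition of human SK-LU-1 cells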
Description: SANGER: Inhibition of human SK-LU-1 cell growth in a cell viability assay.

BT-20 = assay: cells; conditions: Homo sapiens;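 further: cell viability assay measuring suppression of growth in human BT-20 cells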
Description: SANGER: Inhibition of human BT-20 cell growth in a cell viability assay.

RT-112 = assay: cells; conditions: Homo sapiens
Description: SANGER: Inhibition of human RT-112 cell growth in a cell viability assay.

NCI-H1963 = assay: cells; conditions: Homo sapiens;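 further: cell growth inhibition of the human line, determined with a cell viability assay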
Description: SANGER: Inhibition of human NCI-H1963 cell growth in a cell viability assay.

HPAF-II = assay: cells; conditions: Homo sapiens;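 further: growth inhibition of HPAF-II cells, read out with a cell viability assay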
Description: SANGER: Inhibition of human HPAF-II cell growth in a cell viability assay.

TYK-nu = assay: cells; conditions: Homo sapiens;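 further: growth inhibition of human TYK-nu cells, read out by a cell viability assay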
Description: SANGER: Inhibition of human TYK-nu cell growth in a cell viability assay.

NCI-H2087 = assay: cells; conditions: Homo sapiens;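 further: growth inhibition determined with a cell viability readout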
Description: SANGER: Inhibition of human NCI-H2087 cell growth in a cell viability assay.

HCC1395 = assay: cells; conditions: Homo sapiens;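 further: growth inhibition of HCC1395 cells, read out by a cell viability assay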
Description: SANGER: Inhibition of human HCC1395 cell growth in a cell viability assay.

LoVo = assay: cells; conditions: Homo sapiens;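 further: growth inhibition of human LoVo cells, read out with a cell viability assay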
Description: SANGER: Inhibition of human LoVo cell growth in a cell viability assay.

MKN-28 = assay: cells; conditions: Homo sapiens;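 further: cell viability assay read-out, IC50 reflects suppression of growth of human MKN-28 cells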
Description: SANGER: Inhibition of human MKN28 cell growth in a cell viability assay.

KARPAS-422 = assay: cells; conditions: Homo sapiens
Description: SANGER: Inhibition of human KARPAS-422 cell growth in a cell viability assay.

SCC-4 = assay: cells; conditions: Homo sapiens;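 further: growth inhibition of human SCC-4 cells, read out as cell viability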
Description: SANGER: Inhibition of human SCC-4 cell growth in a cell viability assay.

NCI-H1437 = assay: cells; conditions: Homo sapiens;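 further: growth inhibition of human NCI-H1437 cells, read out by a cell viability assay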
Description: SANGER: Inhibition of human NCI-H1437 cell growth in a cell viability assay.

SUP-T1 = assay: cells; conditions: Homo sapiens;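 further: growth inhibition of human SUP-T1 cells, read out as cell viability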
Description: SANGER: Inhibition of human SUP-T1 cell growth in a cell viability assay.

KP-N-YN = assay: cells; conditions: Homo sapiens;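 further: growth inhibition of KP-N-YN cells, read out with a cell viability assay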
Description: SANGER: Inhibition of human KP-N-YN cell growth in a cell viability assay.

A 172 = assay: cells; conditions: Homo sapiens;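 further: growth inhibition of A172 cells, measured with a cell viability readout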
Description: SANGER: Inhibition of human A172 cell growth in a cell viability assay.

Calu-3 = assay: cells; conditions: Homo sapiens;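 further: growth inhibition of human Calu-3 cells, determined with a cell viability assay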
Description: SANGER: Inhibition of human Calu-3 cell growth in a cell viability assay.

PC-14 = assay: cells; conditions: Homo sapiens;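 further: cell viability assay measuring inhibition of PC-14 cell growth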
Description: SANGER: Inhibition of human PC-14 cell growth in a cell viability assay.

SW948 = assay: cells; conditions: Homo sapiens;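 further: growth inhibition of SW948 cells, read out with a cell viability assay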
Description: SANGER: Inhibition of human SW948 cell growth in a cell viability assay.

UACC-62 = assay: cells; conditions: Homo sapiens;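 further: growth inhibition of human UACC-62 cells, read out by a cell viability assay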
Description: SANGER: Inhibition of human UACC-62 cell growth in a cell viability assay.

NCI-H2452 = assay: cells; conditions: Homo sapiens;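 further: growth inhibition of NCI-H2452 cells, read out with a cell viability assay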
Description: SANGER: Inhibition of human NCI-H2452 cell growth in a cell viability assay.

SW837 = assay: cells; conditions: Homo sapiens;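 further: growth inhibition of SW837 cells, determined with a cell viability assay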
Description: SANGER: Inhibition of human SW837 cell growth in a cell viability assay.

MFE-280 = assay: cells; conditions: Homo sapiens;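 further: growth inhibition of MFE-280 cells, determined with a cell viability readout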
Description: SANGER: Inhibition of human MFE-280 cell growth in a cell viability assay.

LCLC-103H cell line = assay: cells; conditions: Homo sapiens
Description: SANGER: Inhibition of human LCLC-103H cell growth in a cell viability assay.

NCI-H2122 = assay: cells; conditions: Homo sapiens;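 further: growth inhibition of the cells, read out with a cell viability assay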
Description: SANGER: Inhibition of human NCI-H2122 cell growth in a cell viability assay.

HO-1-N-1 = assay: cells; conditions: Homo sapiens;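 further: growth inhibition of human HO-1-N-1 cells, read out with a cell viability assay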
Description: SANGER: Inhibition of human HO-1-N-1 cell growth in a cell viability assay.

ME-180 = assay: cells; conditions: Homo sapiens;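 further: cell viability assay measuring growth inhibition of ME-180 cells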
Description: SANGER: Inhibition of human ME-180 cell growth in a cell viability assay.

SF-295 = assay: cells; conditions: Homo sapiens;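 further: growth inhibition of SF-295 cells, read out with a cell viability assay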
Description: SANGER: Inhibition of human SF295 cell growth in a cell viability assay.

IM-9 = assay: SANGER: Inhibition of human IM-9 cell growth in a cell viability assay.
KYSE-180 = assay: cells; conditions: Homo sapiens;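 further: growth inhibition of KYSE-180 cells, read out with a cell viability assay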
Description: SANGER: Inhibition of human KYSE-180 cell growth in a cell viability assay.

NCI-H292 = assay: cells; conditions: Homo sapiens;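 further: growth inhibition of NCI-H292 cells, read out with a cell viability assay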
Description: SANGER: Inhibition of human NCI-H292 cell growth in a cell viability assay.

BFTC-909 = assay: cells; conditions: Homo sapiens
Description: SANGER: Inhibition of human BFTC-909 cell growth in a cell viability assay.

HT55 = assay: cells; conditions: Homo sapiens;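 further: cell viability readout measuring growth inhibition of human HT55 cells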
Description: SANGER: Inhibition of human HT55 cell growth in a cell viability assay.

KYSE-70 cell line = assay: cells; conditions: Homo sapiens;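 further: cell viability assay read-out, with IC50 expressing suppression of KYSE-70 cell growth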
Description: SANGER: Inhibition of human KYSE-70 cell growth in a cell viability assay.

D-542MG = assay: cells; conditions: Homo sapiens
Description: SANGER: Inhibition of human D-542MG cell growth in a cell viability assay.

IMR-5 = assay: cells; conditions: Homo sapiens;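 further: growth inhibition of human IMR-5 cells, read out with a cell viability assay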
Description: SANGER: Inhibition of human IMR-5 cell growth in a cell viability assay.

NCI-H358 = assay: cells; conditions: Homo sapiens;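 further: growth inhibition of NCI-H358 human cells, read out with a cell viability assay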
Description: SANGER: Inhibition of human NCI-H358 cell growth in a cell viability assay.

EFO-27 = assay: cells; conditions: Homo sapiens;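 further: growth inhibition of EFO-27 cells, read out with a cell viability assay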
Description: SANGER: Inhibition of human EFO-27 cell growth in a cell viability assay.

SU-DHL-1 = assay: SANGER: Inhibition of human SU-DHL-1 cell growth in a cell viability assay.
ABC-1 = assay: cells; conditions: Homo sapiens;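 further: growth inhibition of human ABC-1 cells, read out by a cell viability assay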
Description: SANGER: Inhibition of human ABC-1 cell growth in a cell viability assay.

LP-1 = assay: cells; conditions: Homo sapiens;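 further: growth inhibition of human LP-1 cells, with the read-out taken from a cell viability assay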
Description: SANGER: Inhibition of human LP-1 cell growth in a cell viability assay.

SW1463 = assay: cells; conditions: Homo sapiens;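 further: growth inhibition of SW1463 cells, determined with a cell viability assay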
Description: SANGER: Inhibition of human SW1463 cell growth in a cell viability assay.

8505C = assay: cells; conditions: Homo sapiens
Description: SANGER: Inhibition of human 8505C cell growth in a cell viability assay.

NCI-H1755 = assay: cells; conditions: Homo sapiens;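 further: cell viability readout used to measure growth inhibition of NCI-H1755 cells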
Description: SANGER: Inhibition of human NCI-H1755 cell growth in a cell viability assay.

MDA-MB-415 = assay: cells; conditions: Homo sapiens
AGS = assay: cells; conditions: Homo sapiens;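 further: growth inhibition of AGS cells, determined with a cell viability assay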
Description: SANGER: Inhibition of human AGS cell growth in a cell viability assay.

639-V = assay: cells; conditions: Homo sapiens;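 further: growth inhibition of 639-V cells, read out with a cell viability assay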
Description: SANGER: Inhibition of human 639-V cell growth in a cell viability assay.

BOKU = assay: cells; conditions: Homo sapiens;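 further: growth inhibition of the human BOKU cell line, read out by a cell viability assay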
Description: SANGER: Inhibition of human BOKU cell growth in a cell viability assay.

RD = assay: cells; conditions: Homo sapiens
Description: SANGER: Inhibition of human RD cell growth in a cell viability assay.

NCI-H810 = assay: cells; conditions: Homo sapiens;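 further: IC50 reflects inhibition of cancer cell line growth, read out with a cell viability assay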
Description: SANGER: Inhibition of human NCI-H810 cell growth in a cell viability assay.

SW-620 = assay: cells; conditions: Homo sapiens;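 further: growth inhibition of human SW-620 cells, measured by a cell viability assay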
Description: SANGER: Inhibition of human SW620 cell growth in a cell viability assay.

NCI-H719 = assay: cells; conditions: Homo sapiens;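 further: growth inhibition of the cultured cell line, read out with a viability assay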
Description: SANGER: Inhibition of human NCI-H719 cell growth in a cell viability assay.

5637 = assay: cells; conditions: Homo sapiens
Description: SANGER: Inhibition of human 5637 cell growth in a cell viability assay.

D-392MG = assay: cells; conditions: Homo sapiens
NCI-H1703 = assay: cells; conditions: Homo sapiens;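 further: growth inhibition of NCI-H1703 cells, read out via a cell viability assay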
Description: SANGER: Inhibition of human NCI-H1703 cell growth in a cell viability assay.

MDA-MB-361 = assay: cells; conditions: Homo sapiens
RPMI-7951 = assay: cells; conditions: Homo sapiens
Description: SANGER: Inhibition of human RPMI-7951 cell growth in a cell viability assay.

What does the source list for `C/C=C(/C)C(=O)O[C@H]1C(C)=C2[C@H]([C@@H]1OC(=O)CCCCCCC)[C@@](C)(OC(C)=O)C[C@H](OC(=O)CCC)[C@@]1(O)[C@H]2OC(=O)[C@@]1(C)O` [THAPSIGARGIN]?
IC50 (MONO-MAC-6): 3.8 nM; IC50 (NCI-H522): 5.43 nM; IC50 (Ca9-22): 22.8 nM; IC50 (BEN): 13.9 nM; IC50 (LU-165): > 512 nM; IC50 (OE33): 46.9 nM; IC50 (SK-LU-1): 1.16 nM; IC50 (BT-20): > 512 nM; IC50 (RT-112): 4.22 nM; IC50 (NCI-H1963): 66.2 nM; IC50 (HPAF-II): 61.9 nM; IC50 (TYK-nu): < 2 nM; IC50 (NCI-H2087): 0.546 nM; IC50 (HCC1395): 3.15 nM; IC50 (LoVo): 10.4 nM; IC50 (MKN-28): 9.79 nM; IC50 (KARPAS-422): 23.9 nM; IC50 (SCC-4): 10.4 nM; IC50 (NCI-H1437): 2.47 nM; IC50 (SUP-T1): 54.7 nM; IC50 (KP-N-YN): 27 nM; IC50 (A 172): < 2 nM; IC50 (Calu-3): > 512 nM; IC50 (PC-14): 8.01 nM; IC50 (SW948): > 512 nM; IC50 (UACC-62): 66.4 nM; IC50 (NCI-H2452): > 512 nM; IC50 (SW837): 1.66 nM; IC50 (MFE-280): 36.6 nM; IC50 (LCLC-103H cell line): < 2 nM; IC50 (NCI-H2122): 4.49 nM; IC50 (HO-1-N-1): > 512 nM; IC50 (ME-180): > 512 nM; IC50 (SF-295): < 2 nM; IC50 (IM-9): > 512 nM; IC50 (KYSE-180): 1.16 nM; IC50 (NCI-H292): 14.9 nM; IC50 (BFTC-909): 0.968 nM; IC50 (HT55): > 512 nM; IC50 (KYSE-70 cell line): < 2 nM; IC50 (D-542MG): 6.93 nM; IC50 (IMR-5): 15.6 nM; IC50 (NCI-H358): < 2 nM; IC50 (EFO-27): 25.4 nM; IC50 (SU-DHL-1): > 512 nM; IC50 (ABC-1): 3.19 nM; IC50 (LP-1): 4.08 nM; IC50 (SW1463): > 512 nM; IC50 (8505C): < 2 nM; IC50 (NCI-H1755): 310 nM; IC50 (MDA-MB-415): > 512 nM; IC50 (AGS): 8.78 nM; IC50 (639-V): 0.512 nM; IC50 (BOKU): > 512 nM; IC50 (RD): 7.35 nM; IC50 (NCI-H810): 7.14 nM; IC50 (SW-620): 3.02 nM; IC50 (NCI-H719): > 512 nM; IC50 5637: 11.4 nM; IC50 (D-392MG): > 512 nM; IC50 (NCI-H1703): 10.1 nM; IC50 (MDA-MB-361): 4.73 nM; IC50 (RPMI-7951): 3.98 nM
